Data taken from ChEMBL document CHEMBL1201862, “PubChem BioAssay data set” (2004).
One block for each molecule: values may come before it. The source made the active and inactive calls. Cut-off read from the data, not from the text of the source, for most assays here: actives have a measured IC50 and inactives only a lower limit.

What was measured:
[1] = target: T1, Tyrosine-protein phosphatase non-receptor type 7 (Homo sapiens, UniProt P35236); assay type: functional
T1 sequence (P35236 whole entry): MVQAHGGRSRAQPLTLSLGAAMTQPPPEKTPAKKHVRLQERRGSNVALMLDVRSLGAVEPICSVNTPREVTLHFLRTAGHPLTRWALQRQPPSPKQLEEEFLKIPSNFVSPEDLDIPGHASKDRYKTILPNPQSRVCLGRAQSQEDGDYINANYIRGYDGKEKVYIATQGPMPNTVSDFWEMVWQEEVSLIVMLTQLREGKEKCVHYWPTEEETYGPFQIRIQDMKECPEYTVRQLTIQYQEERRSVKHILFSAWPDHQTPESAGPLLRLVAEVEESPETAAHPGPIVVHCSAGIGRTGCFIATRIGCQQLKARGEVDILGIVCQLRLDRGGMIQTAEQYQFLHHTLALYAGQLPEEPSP

[2] = target: T2, Tyrosine-protein phosphatase non-receptor type 22 (Homo sapiens, UniProt Q9Y2R2); assay type: functional
T2 sequence (Q9Y2R2 whole entry): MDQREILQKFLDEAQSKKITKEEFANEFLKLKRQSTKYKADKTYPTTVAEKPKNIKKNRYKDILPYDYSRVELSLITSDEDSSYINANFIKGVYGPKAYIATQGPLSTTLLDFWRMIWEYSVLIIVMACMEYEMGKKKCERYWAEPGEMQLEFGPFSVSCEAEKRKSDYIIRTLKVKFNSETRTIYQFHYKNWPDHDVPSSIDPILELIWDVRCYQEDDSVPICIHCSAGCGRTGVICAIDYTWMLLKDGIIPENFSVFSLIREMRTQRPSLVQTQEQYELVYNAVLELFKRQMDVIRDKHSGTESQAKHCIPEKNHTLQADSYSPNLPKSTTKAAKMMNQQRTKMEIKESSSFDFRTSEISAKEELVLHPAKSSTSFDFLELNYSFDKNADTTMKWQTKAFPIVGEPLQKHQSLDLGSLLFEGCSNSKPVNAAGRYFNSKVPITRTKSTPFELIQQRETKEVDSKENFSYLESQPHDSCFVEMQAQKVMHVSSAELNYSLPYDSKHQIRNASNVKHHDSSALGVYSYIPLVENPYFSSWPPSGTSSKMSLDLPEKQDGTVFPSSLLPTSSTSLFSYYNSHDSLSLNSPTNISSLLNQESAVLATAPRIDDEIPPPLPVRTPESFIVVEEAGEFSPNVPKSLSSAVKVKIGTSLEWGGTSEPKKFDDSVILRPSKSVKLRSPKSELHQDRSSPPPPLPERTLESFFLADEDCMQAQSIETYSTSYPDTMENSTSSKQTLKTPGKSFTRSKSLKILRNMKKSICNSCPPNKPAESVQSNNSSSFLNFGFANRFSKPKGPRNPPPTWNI

[3] = target: T2, Tyrosine-protein phosphatase non-receptor type 22; assay type: functional; remark: listed apart in the source
[4] = inhibitors of HIV Env-driven cell fusion, dose response, cherry-pick (AID 652057); assay type: functional, cell-based
HEK293 [5] = assay: cells; conditions: Homo sapiens
[6] = ZM109 Env clade C HIV-1 fusion inhibitors, dose response, HeLa effector, CEM target cells, luciferase, cherry-pick (AID 652058); assay type: functional, cell-based
HEK293 [7] = assay: cells; conditions: Homo sapiens; remark: listed apart in the source
[8] = off-target signal loss in HeLa-CEM21 co-culture – HeLa F-luc CTL cells, cherry-picked, counter-screen for HIV-1 Env fusion inhibitor project, dose response (AID 652040); assay type: functional, cell-based;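 note: potency for signal decrease marking cytotoxic or nonspecific inhibition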
[9] = inhibitors of clade B AD8 Env fusion, dose response, cell-based, cherry-pick (AID 652062); assay type: functional;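 note: luciferase signal from cell-cell fusion driven by HIV-1 clade B AD8 Env; potency is for inhibitors of fusion seen as a drop in luminescence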
[10] = target: T3, E3 ubiquitin-protein ligase XIAP (Homo sapiens, UniProt P98170); assay: XIAP antagonists, biochemical, IAP family, fluorescence polarization (AID 1018); assay type: functional
T3 sequence (P98170 whole entry): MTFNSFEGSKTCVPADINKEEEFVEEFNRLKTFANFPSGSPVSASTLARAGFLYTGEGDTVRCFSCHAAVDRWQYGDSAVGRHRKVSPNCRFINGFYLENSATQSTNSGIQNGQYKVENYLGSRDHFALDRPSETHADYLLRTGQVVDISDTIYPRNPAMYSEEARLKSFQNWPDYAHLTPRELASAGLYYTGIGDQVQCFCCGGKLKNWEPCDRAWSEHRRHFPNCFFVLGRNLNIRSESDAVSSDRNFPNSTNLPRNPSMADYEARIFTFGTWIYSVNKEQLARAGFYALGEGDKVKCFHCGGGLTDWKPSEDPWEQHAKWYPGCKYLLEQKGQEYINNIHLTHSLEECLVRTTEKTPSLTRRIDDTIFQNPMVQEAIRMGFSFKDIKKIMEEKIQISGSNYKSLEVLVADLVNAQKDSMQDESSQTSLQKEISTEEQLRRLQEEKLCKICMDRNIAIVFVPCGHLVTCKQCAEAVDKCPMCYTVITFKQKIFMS

[11] = target: T3, E3 ubiquitin-protein ligase XIAP; assay: Counter Screen using XIAP-Bir3 for Chemical Antagonists of Bir1/2 domains of IAP-family anti-apoptotic proteins. [Related pubchem assays (depositor defined):AID1018, AID1449, AID1514, AID1638, AID1749, AID1750, AID488957, AID488963]
[12] = target: T1, Tyrosine-protein phosphatase non-receptor type 7; assay: HePTP (PTPN7) phosphatase inhibitor potency, SAR follow-up, biochemical, set 2 (AID 449736); assay type: functional
[13] = target: T2, Tyrosine-protein phosphatase non-receptor type 22; assay: LYP (PTPN22) phosphatase inhibitor potency, SAR follow-up, biochemical, pCAP fluorogenic substrate, fluorescence, set 3 (AID 449727); assay type: functional
[14] = target: T2, Tyrosine-protein phosphatase non-receptor type 22; assay: SAR LYP1 Fluorescent Assay using pCAP substrate for In Vitro dose response studies - Set 2. [Related pubchem assays (depositor defined):AID1779, AID1784, AID2135, AID449727]; assay type: functional
[15] = target: T2, Tyrosine-protein phosphatase non-receptor type 22; assay: SAR LYP1 Fluorescent Assay using OMFP substrate for In Vitro dose response studies - Set 3. [Related pubchem assays (depositor defined):AID1779, AID1784, AID2140, AID2686]; assay type: functional
[16] = target: Tyrosine-protein phosphatase non-receptor type 12 (Homo sapiens, UniProt Q05209); assay: SAR Selectivity Analysis of small molecule inhibitors of PEST using pCAP in a fluorescence assay. [Related pubchem assays (depositor defined):AID1779, AID1784, AID2135]; assay type: functional
Tyrosine-protein phosphatase non-receptor type 12, sequence (Q05209 whole entry): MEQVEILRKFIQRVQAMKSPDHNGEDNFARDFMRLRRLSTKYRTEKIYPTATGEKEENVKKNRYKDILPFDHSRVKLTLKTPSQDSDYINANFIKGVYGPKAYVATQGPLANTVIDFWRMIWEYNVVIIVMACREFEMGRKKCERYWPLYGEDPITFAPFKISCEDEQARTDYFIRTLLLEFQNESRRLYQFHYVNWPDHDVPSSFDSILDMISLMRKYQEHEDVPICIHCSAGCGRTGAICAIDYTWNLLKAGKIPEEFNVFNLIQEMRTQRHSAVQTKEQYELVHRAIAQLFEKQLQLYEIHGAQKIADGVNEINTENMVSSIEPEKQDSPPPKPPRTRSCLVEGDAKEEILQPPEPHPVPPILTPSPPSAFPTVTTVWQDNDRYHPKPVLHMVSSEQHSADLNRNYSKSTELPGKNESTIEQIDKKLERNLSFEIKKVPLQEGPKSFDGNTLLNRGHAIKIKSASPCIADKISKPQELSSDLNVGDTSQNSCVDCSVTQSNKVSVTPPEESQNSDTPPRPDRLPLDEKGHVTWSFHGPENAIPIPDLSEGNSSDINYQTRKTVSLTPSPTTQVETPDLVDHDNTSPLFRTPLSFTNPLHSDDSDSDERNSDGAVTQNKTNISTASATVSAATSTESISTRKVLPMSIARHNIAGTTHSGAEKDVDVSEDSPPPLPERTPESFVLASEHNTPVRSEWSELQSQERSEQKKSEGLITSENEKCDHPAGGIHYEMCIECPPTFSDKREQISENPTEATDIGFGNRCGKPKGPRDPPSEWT

[17] = target: T2, Tyrosine-protein phosphatase non-receptor type 22; assay: SAR LYP1 Fluorescent Assay using OMFP substrate for In Vitro dose response studies - Set 2. [Related pubchem assays (depositor defined):AID1779, AID1784, AID2140, AID449726, AID488869]; assay type: functional

- IC50 [1]: > 79.4 µM (inactive)
- IC50 [2]: > 79.4 µM (inactive)
- IC50 [3]: > 79.4 µM (inactive)
Structure (SMILES): O=c1c(-c2ccccc2)c(O)c2c(n1-c1ccccc1)CCCC2

Structure (SMILES): CCS(=O)(=O)N1Cc2ccccc2CC1C(=O)NCC12CC3CC(CC(C3)C1)C2 (configuration not stated)
- AC50 [4]: 4.37 µM (active)
- EC50 (HEK293 [5]): > 59.7 µM (inactive)
- AC50 [6]: 2.86 µM (active)
- EC50 (HEK293 [7]): > 59.7 µM (inactive)
- AC50 [8]: 7.35 µM (active)
- AC50 [9]: 19.8 µM (active)

- IC50 [10]: > 100 µM (not active)
- IC50 [11]: > 100 µM (inactive)
Structure (SMILES): COC(=O)c1ccc(C(=O)NC(=S)Nc2nc3c(s2)CCCC3)cc1

- IC50 [12]: > 100 µM (inactive)
- IC50 [13]: > 100 µM (inactive)
- IC50 [14]: 81.2 µM (active)
- IC50 [15]: > 100 µM (inactive)
- IC50 [16]: > 100 µM (inactive)
- IC50 [17]: > 100 µM (inactive)
Structure (SMILES): O=C(O)COc1ccc2c(c1)O/C(=C\c1cccs1)C2=O
